Data reported in publication PMC5218480 (PLoS ONE, 2017).

System: MV-4-11 cells
Test: Gene expression microarray analysis (Affymetrix PrimeView) and GSEA
Type: cell-based, human
Set-up: RFU PODN (11730768_x_at) / Fold change /veh PODN (11730768_x_at) / RFU LINC00158 (11744669_a_at) / Fold change /veh LINC00158 (11744669_a_at) / RFU DUSP10 (11751237_a_at) / Fold change /veh DUSP10 (11751237_a_at) / RFU ID3 (11757404_x_at) / Fold change /veh ID3 (11757404_x_at) / RFU PLEKHG5 (11737974_s_at) / Fold change /veh PLEKHG5 (11737974_s_at) / RFU LRRC4B (11730491_at) / Fold change /veh LRRC4B (11730491_at) / RFU GIMAP4 (11747438_a_at) / Fold change /veh GIMAP4 (11747438_a_at) / RFU KRT8 (11758183_x_at) / Fold change /veh KRT8 (11758183_x_at) / RFU CNN1 (11734310_a_at) / Fold change /veh CNN1 (11734310_a_at) / RFU VPS37D (11726825_at) / Fold change /veh VPS37D (11726825_at) / RFU C10orf10 (11716522_x_at) / Fold change /veh C10orf10 (11716522_x_at) / RFU KIR2DL2 /// KIR2DL4 /// KIR2DL5A /// KIR2DL5B /// KIR2DS1 /// KIR2DS2 /// KIR2DS3 /// KIR2DS4 /// KIR3DL3 /// KIR3DL3 /// KIR3DS1 (11738374_at) / Fold change /veh KIR2DL2 /// KIR2DL4 /// KIR2DL5A /// KIR2DL5B /// KIR2DS1 /// KIR2DS2 /// KIR2DS3 /// KIR2DS4 /// KIR3DL3 /// KIR3DL3 /// KIR3DS1 (11738374_at) / RFU C1QL1 (11718748_at) / Fold change /veh C1QL1 (11718748_at) / RFU TMPRSS4 (11747572_a_at) / Fold change /veh TMPRSS4 (11747572_a_at) / RFU HAMP (11756126_x_at) / Fold change /veh HAMP (11756126_x_at) / RFU RNFT2 (11725882_a_at) / Fold change /veh RNFT2 (11725882_a_at) / RFU NR4A2 (11747474_a_at) / Fold change /veh NR4A2 (11747474_a_at) / RFU ABCC12 (11746883_a_at) / Fold change /veh ABCC12 (11746883_a_at) / RFU TMEM136 (11760407_x_at) / Fold change /veh TMEM136 (11760407_x_at) / RFU CLDN22 /// WWC2 (11732394_at) / Fold change /veh CLDN22 /// WWC2 (11732394_at) / RFU HLA-DPB1 (11760878_x_at) / Fold change /veh HLA-DPB1 (11760878_x_at) / RFU SPINT1 (11716480_a_at) / Fold change /veh SPINT1 (11716480_a_at) / RFU GAP43 (11754022_s_at) / Fold change /veh GAP43 (11754022_s_at) / RFU A4GNT (11735810_at) / Fold change /veh A4GNT (11735810_at) / RFU PRB3 (11715151_x_at) / Fold change /veh PRB3 (11715151_x_at) / RFU TUBB4B (11761932_at) / Fold change /veh TUBB4B (11761932_at) / RFU CAPN14 (11732068_a_at) / Fold change /veh CAPN14 (11732068_a_at) / RFU TMCC2 (11721928_a_at) / Fold change /veh TMCC2 (11721928_a_at) / RFU IRGQ (11745062_a_at) / Fold change /veh IRGQ (11745062_a_at) / RFU FAM174B (11720279_a_at) / Fold change /veh FAM174B (11720279_a_at) / RFU TMPRSS4 (11748680_a_at) / Fold change /veh TMPRSS4 (11748680_a_at) / RFU FAM212B (11763350_a_at) / Fold change /veh FAM212B (11763350_a_at) / RFU PLEKHG5 (11743358_a_at) / Fold change /veh PLEKHG5 (11743358_a_at) / RFU ZSCAN30 (11745921_a_at) / Fold change /veh ZSCAN30 (11745921_a_at) / RFU CMKLR1 (11741424_a_at) / Fold change /veh CMKLR1 (11741424_a_at) / RFU LOC101060620 /// MAPK8IP1 (11723275_at) / Fold change /veh LOC101060620 /// MAPK8IP1 (11723275_at) / RFU SPTSSB (11747773_x_at) / Fold change /veh SPTSSB (11747773_x_at) / RFU PRSS12 (11739890_at) / Fold change /veh PRSS12 (11739890_at) / RFU BIN1 (11741810_x_at) / Fold change /veh BIN1 (11741810_x_at) / RFU WNT11 (11732464_a_at) / Fold change /veh WNT11 (11732464_a_at) / RFU C10orf10 (11716521_a_at) / Fold change /veh C10orf10 (11716521_a_at) / RFU C5orf56 (11738089_at) / Fold change /veh C5orf56 (11738089_at) / RFU CYB561 (11721691_x_at) / Fold change /veh CYB561 (11721691_x_at) / RFU ANKRD19P (11752326_a_at) / Fold change /veh ANKRD19P (11752326_a_at) / RFU OR2T12 /// OR2T33 /// OR2T8 (11738714_s_at) / Fold change /veh OR2T12 /// OR2T33 /// OR2T8 (11738714_s_at) / RFU VCAN (11748164_a_at) / Fold change /veh VCAN (11748164_a_at) / RFU JSRP1 (11732532_at) / Fold change /veh JSRP1 (11732532_at) / RFU KRTAP10-11 (11738290_x_at) / Fold change /veh KRTAP10-11 (11738290_x_at) / RFU MYO3A (11730013_a_at) / Fold change /veh MYO3A (11730013_a_at) / RFU EBF3 (11725865_a_at) / Fold change /veh EBF3 (11725865_a_at) / RFU CAMK2N1 (11719241_x_at) / Fold change /veh CAMK2N1 (11719241_x_at) / RFU C5orf56 (11738088_a_at) / Fold change /veh C5orf56 (11738088_a_at) / RFU OLFML3 (11715873_a_at) / Fold change /veh OLFML3 (11715873_a_at) / RFU LOC100653217 /// NTM (11731650_a_at) / Fold change /veh LOC100653217 /// NTM (11731650_a_at) / RFU MAPK11 (11762145_a_at) / Fold change /veh MAPK11 (11762145_a_at) / RFU FIZ1 (11724087_x_at) / Fold change /veh FIZ1 (11724087_x_at) / RFU OASL (11726364_x_at) / Fold change /veh OASL (11726364_x_at) / RFU SOX15 (11748057_x_at) / Fold change /veh SOX15 (11748057_x_at) / RFU CD79A (11719716_a_at) / Fold change /veh CD79A (11719716_a_at) / RFU HIST1H1D (11736915_at) / Fold change /veh HIST1H1D (11736915_at) / RFU CASKIN2 (11723855_a_at) / Fold change /veh CASKIN2 (11723855_a_at) / RFU LOC730098 (11760151_x_at) / Fold change /veh LOC730098 (11760151_x_at) / RFU OR4N2 (11742367_at) / Fold change /veh OR4N2 (11742367_at) / RFU PRRT2 (11749266_a_at) / Fold change /veh PRRT2 (11749266_a_at) / RFU SNX32 (11753110_a_at) / Fold change /veh SNX32 (11753110_a_at) / RFU CDHR5 (11726645_a_at) / Fold change /veh CDHR5 (11726645_a_at) / RFU RCAN1 (11760418_a_at) / Fold change /veh RCAN1 (11760418_a_at) / RFU FAM167A (11723789_a_at) / Fold change /veh FAM167A (11723789_a_at) / RFU FAM26E (11764081_at) / Fold change /veh FAM26E (11764081_at) / RFU ISYNA1 (11749810_s_at) / Fold change /veh ISYNA1 (11749810_s_at) / RFU ACY1 (11761880_at) / Fold change /veh ACY1 (11761880_at) / RFU 11764098_at / Fold change /veh 11764098_at / RFU SAMD14 (11745864_x_at) / Fold change /veh SAMD14 (11745864_x_at) / RFU NPB (11741838_a_at) / Fold change /veh NPB (11741838_a_at) / RFU TMPRSS6 (11731388_a_at) / Fold change /veh TMPRSS6 (11731388_a_at) / RFU KRTAP10-2 (11738614_at) / Fold change /veh KRTAP10-2 (11738614_at) / RFU ARHGAP8 /// PRR5-ARHGAP8 (11727945_x_at) / Fold change /veh ARHGAP8 /// PRR5-ARHGAP8 (11727945_x_at) / RFU KRTAP5-7 /// NADSYN1 (11734609_at) / Fold change /veh KRTAP5-7 /// NADSYN1 (11734609_at) / RFU RASL12 (11751679_a_at) / Fold change /veh RASL12 (11751679_a_at) / RFU CDKN2B (11736163_a_at) / Fold change /veh CDKN2B (11736163_a_at) / RFU PRF1 (11729649_at) / Fold change /veh PRF1 (11729649_at) / RFU, ZNF638 /// ZNF638-IT1 / Fold change vs veh, ZNF638 /// ZNF638-IT1 / RFU, PANK3 / Fold change vs veh, PANK3 / RFU, SH3YL1 / Fold change vs veh, SH3YL1 / RFU, ZEB2 / Fold change vs veh, ZEB2 / RFU, NRIP1 / Fold change vs veh, NRIP1 / RFU, PTTG1IP / Fold change vs veh, PTTG1IP / RFU, CAPN2 / Fold change vs veh, CAPN2 / RFU, MED14 / Fold change vs veh, MED14 / RFU, SNORA58 / Fold change vs veh, SNORA58 / RFU, C1orf63 / Fold change vs veh, C1orf63 / RFU, LRRFIP1 / Fold change vs veh, LRRFIP1 / RFU, NDUFAF7 / Fold change vs veh, NDUFAF7 / RFU, SLC12A2 / Fold change vs veh, SLC12A2 / RFU, IBTK / Fold change vs veh, IBTK / RFU, ESF1 / Fold change vs veh, ESF1 / Fold change vs veh, TMEM50B / RFU, TAOK1 / Fold change vs veh, TAOK1 / RFU, ACBD3 / Fold change vs veh, ACBD3 / RFU, TMA16 / Fold change vs veh, TMA16 / RFU, RWDD3 / Fold change vs veh, RWDD3 / RFU, BCAT1 / Fold change vs veh, BCAT1 / RFU, EDEM3 / Fold change vs veh, EDEM3 / RFU, TMEM33 / Fold change vs veh, TMEM33 / RFU, WDR75 / Fold change vs veh, WDR75 / RFU, AHCTF1 / Fold change vs veh, AHCTF1 / RFU, TFRC / Fold change vs veh, TFRC / RFU, ZDHHC17 / Fold change vs veh, ZDHHC17 / RFU, NOM1 / Fold change vs veh, NOM1 / RFU, ARL8B / Fold change vs veh, ARL8B / RFU, ZBTB11 / Fold change vs veh, ZBTB11 / RFU, TAMM41 / Fold change vs veh, TAMM41 / RFU, KIAA1704 /// LOC100996395 / Fold change vs veh, KIAA1704 /// LOC100996395 / RFU, ING1 / Fold change vs veh, ING1 / RFU, TRMT61B / Fold change vs veh, TRMT61B / RFU, FUBP3 / Fold change vs veh, FUBP3 / RFU, TP53 / Fold change vs veh, TP53 / RFU, TNKS2 / Fold change vs veh, TNKS2 / RFU, ZFP14 / Fold change vs veh, ZFP14 / RFU, ACTR2 / Fold change vs veh, ACTR2 / RFU, PPP3R1 / Fold change vs veh, PPP3R1 / RFU, PIK3R1 / Fold change vs veh, PIK3R1 / RFU, HNRNPA1 / Fold change vs veh, HNRNPA1 / RFU, RNF170 / Fold change vs veh, RNF170 / RFU, ZNF28 / Fold change vs veh, ZNF28 / RFU, RNGTT / Fold change vs veh, RNGTT / RFU, OGT / Fold change vs veh, OGT / RFU, BRD1 / Fold change vs veh, BRD1 / RFU, MARS / Fold change vs veh, MARS / RFU, ZNF655 / Fold change vs veh, ZNF655 / RFU, FAHD1 / Fold change vs veh, FAHD1 / RFU, BDP1 / Fold change vs veh, BDP1 / RFU, LRRCC1 / Fold change vs veh, LRRCC1 / RFU, ARID1A / Fold change vs veh, ARID1A / RFU, ZNF146 / Fold change vs veh, ZNF146 / RFU, ZNF330 / Fold change vs veh, ZNF330 / RFU, GPN3 / Fold change vs veh, GPN3 / RFU, C9orf123 / Fold change vs veh, C9orf123 / RFU, N4BP2L2 / Fold change vs veh, N4BP2L2 / RFU, ARFIP1 / Fold change vs veh, ARFIP1 / RFU, FAM179B / Fold change vs veh, FAM179B / RFU, BCL10 / Fold change vs veh, BCL10 / RFU, UHRF1BP1L / Fold change vs veh, UHRF1BP1L / RFU, BET1 / Fold change vs veh, BET1 / RFU, CNOT2 / Fold change vs veh, CNOT2 / RFU, ZNF268 / Fold change vs veh, ZNF268 / Fold change vs veh, ZNF507 / RFU, DGCR2 / Fold change vs veh, DGCR2 / RFU, WDSUB1 / Fold change vs veh, WDSUB1 / Fold change vs veh, HSP90B1 /// MIR3652 / RFU, ADSS / Fold change vs veh, ADSS / RFU, GK / Fold change vs veh, GK / RFU, ZNF148 / Fold change vs veh, ZNF148 / RFU, TAF9 / Fold change vs veh, TAF9 / RFU, SLC1A5 / Fold change vs veh, SLC1A5 / RFU, SLMO2 / Fold change vs veh, SLMO2 / RFU, ABCC4 / Fold change vs veh, ABCC4 / RFU, LOC101060439 /// RAP1B / Fold change vs veh, LOC101060439 /// RAP1B / RFU, RFX7 / Fold change vs veh, RFX7 / RFU, GTPBP10 / Fold change vs veh, GTPBP10 / RFU, CNEP1R1 / Fold change vs veh, CNEP1R1 / RFU, BIVM-ERCC5 /// ERCC5 / Fold change vs veh, BIVM-ERCC5 /// ERCC5 / RFU, ILF3 / Fold change vs veh, ILF3 / RFU 11762660_at / Fold change /veh 11762660_at / RFU VCAN (11757783_s_at) / Fold change /veh VCAN (11757783_s_at) / RFU DDX43 (11728927_at) / Fold change /veh DDX43 (11728927_at) / RFU KRT8 (11758188_x_at) / Fold change /veh KRT8 (11758188_x_at) / RFU NKD1 (11759106_at) / Fold change /veh NKD1 (11759106_at) / RFU SRD5A1 (11742802_a_at) / Fold change /veh SRD5A1 (11742802_a_at) / RFU TPSAB1 /// TPSB2 (11721975_s_at) / Fold change /veh TPSAB1 /// TPSB2 (11721975_s_at) / RFU GSTM3 (11746129_a_at) / Fold change /veh GSTM3 (11746129_a_at) / RFU IL23R (11737362_x_at) / Fold change /veh IL23R (11737362_x_at) / RFU TMEM51 (11727254_a_at) / Fold change /veh TMEM51 (11727254_a_at) / RFU PIWIL2 (11732686_x_at) / Fold change /veh PIWIL2 (11732686_x_at) / RFU ORM1 (11744905_x_at) / Fold change /veh ORM1 (11744905_x_at) / RFU CCDC152 (11743942_at) / Fold change /veh CCDC152 (11743942_at) / RFU ECM1 (11717891_a_at) / Fold change /veh ECM1 (11717891_a_at) / RFU IL23R (11748794_a_at) / Fold change /veh IL23R (11748794_a_at) / RFU TNFAIP8L3 (11732012_x_at) / Fold change /veh TNFAIP8L3 (11732012_x_at) / RFU MBOAT4 (11741988_at) / Fold change /veh MBOAT4 (11741988_at) / RFU 11764193_at / Fold change /veh 11764193_at / RFU TMEM53 (11763286_at) / Fold change /veh TMEM53 (11763286_at) / RFU MAGEB2 (11727129_at) / Fold change /veh MAGEB2 (11727129_at) / RFU TMEM200A (11744735_a_at) / Fold change /veh TMEM200A (11744735_a_at) / RFU CCDC152 (11751479_a_at) / Fold change /veh CCDC152 (11751479_a_at) / RFU FAM211A (11726209_a_at) / Fold change /veh FAM211A (11726209_a_at) / RFU RGS16 (11746705_a_at) / Fold change /veh RGS16 (11746705_a_at) / RFU VCAN (11755009_s_at) / Fold change /veh VCAN (11755009_s_at) / RFU RHOB (11743442_s_at) / Fold change /veh RHOB (11743442_s_at) / RFU RGS16 (11720943_a_at) / Fold change /veh RGS16 (11720943_a_at) / RFU RGS16 (11720944_at) / Fold change /veh RGS16 (11720944_at) / RFU, VPS4B / Fold change vs veh, VPS4B / RFU, CREB1 / Fold change vs veh, CREB1 / RFU, DNAJC13 / Fold change vs veh, DNAJC13 / RFU, GNAQ / Fold change vs veh, GNAQ / RFU, CDK5R1 / Fold change vs veh, CDK5R1 / RFU, ZRANB3 / Fold change vs veh, ZRANB3 / RFU, CUL4A / Fold change vs veh, CUL4A / RFU, CCNY / Fold change vs veh, CCNY / RFU, UFL1 / Fold change vs veh, UFL1 / RFU, COG3 / Fold change vs veh, COG3 / RFU, DIAPH2 / Fold change vs veh, DIAPH2 / RFU, SKA2 / Fold change vs veh, SKA2 / RFU, AFF3 / Fold change vs veh, AFF3 / RFU, LMF1 / Fold change vs veh, LMF1 / RFU, IPO11 / Fold change vs veh, IPO11 / RFU, DFFB / Fold change vs veh, DFFB / RFU, FOXP1 / Fold change vs veh, FOXP1 / RFU, CARD8 / Fold change vs veh, CARD8 / RFU, STRN3 / Fold change vs veh, STRN3 / RFU, ADK / Fold change vs veh, ADK / RFU, RASSF2 / Fold change vs veh, RASSF2 / RFU, WIPF1 / Fold change vs veh, WIPF1 / RFU, LARP1B / Fold change vs veh, LARP1B / RFU, RASA1 / Fold change vs veh, RASA1 / RFU, RB1 / Fold change vs veh, RB1 / RFU, PPFIA1 / Fold change vs veh, PPFIA1 / RFU, MAT2A / Fold change vs veh, MAT2A / RFU, CCT5 / Fold change vs veh, CCT5 / RFU, WDR92 / Fold change vs veh, WDR92 / RFU, CUX1 / Fold change vs veh, CUX1 / RFU, TTC7A / Fold change vs veh, TTC7A / RFU, TMEM135 / Fold change vs veh, TMEM135 / RFU, DEPTOR / Fold change vs veh, DEPTOR / RFU, CPM / Fold change vs veh, CPM / RFU, DNAJB6 / Fold change vs veh, DNAJB6 / RFU, CACNA2D3 / Fold change vs veh, CACNA2D3 / RFU, DTX4 / Fold change vs veh, DTX4 / RFU, TFCP2 / Fold change vs veh, TFCP2 / RFU, GMCL1 /// GMCL1P1 / Fold change vs veh, GMCL1 /// GMCL1P1 / RFU, AEBP2 / Fold change vs veh, AEBP2 / RFU, SNHG1 /// SNORD22 /// SNORD25 /// SNORD26 /// SNORD27 /// SNORD28 /// SNORD29 /// SNORD31 / Fold change vs veh, SNHG1 /// SNORD22 /// SNORD25 /// SNORD26 /// SNORD27 /// SNORD28 /// SNORD29 /// SNORD31 / Fold change (Aza/veh), C12orf56 (ProbeSet 11735607_a_at) / Fold change (ACY-1035/veh), C12orf56 (ProbeSet 11735607_a_at) / Fold change (Aza/veh), FGFR1OP (ProbeSet 11751329_s_at) / Fold change (ACY-1035/veh), FGFR1OP (ProbeSet 11751329_s_at) / Fold change (Aza/veh), VPS36 (ProbeSet 11739960_a_at) / Fold change (ACY-1035/veh), VPS36 (ProbeSet 11739960_a_at) / RFU SYPL1 (11715823_x_at) / Fold change /veh SYPL1 (11715823_x_at) / RFU IGFBP7 (11715501_s_at) / Fold change /veh IGFBP7 (11715501_s_at) / RFU REEP3 (11722064_at) / Fold change /veh REEP3 (11722064_at) / RFU IGLL1 (11728026_x_at) / Fold change /veh IGLL1 (11728026_x_at): dose or concentration left out as unconfirmed
Conditions: ProbeSet 11722022_s_at; LIST D

Structure (SMILES): Nc1ccc(-c2cccs2)cc1NC(=O)c1ccc2c(c1)cc(C1CC1)n2CCN1CCOCC1 [ACY-1035]
- RFU, CDK5R1: 47.94 RFU
